Experimental data published in paper PMC5753150 (Beilstein Journal of Organic Chemistry, 2017).
Entries after “also recorded” stand apart in the source; their conditions may differ. *1 amine or outer side, *2 acyl side, *3 side chain or, on linkers, in order; H or OH if unused. Where a SMILES comes first, the peptide text is derived from it. [ ]: non-standard residue; d: D form. Leu(5,5,5,5',5',5'-F6) = N[C@@H](CC(C(F)(F)F)C(F)(F)F)C(=O)O; X1 = C[C@@H](CC(F)(F)F)[C@H](N[*:1])C(=O)[*:2]; 2Abz = Nc1ccccc1C(=O)O

Assays:
[1] = target: T1, α-chymotrypsin (EC 3.4.21.1) (Bos taurus, UniProt P00766); assay: Protease digestion assay with α-chymotrypsin (FL-RP-HPLC); format: in vitro ADME, bovine; conditions: for Percentage of substrate remaining after incubation for 24 h: α-chymotrypsin (bovine pancreas), 10 mM phosphate buffer pH 7.4 with DMSO, 30 °C, FL-RP-HPLC peak integration (Abz, λex 320/λem 420 nm), average of three independent measurements; for Gain in proteolytic stability upon fluorination compared to the non-fluorinated (Leu or Ile) analogue / Proteolytic stability compared to control peptide FA after 120 min / Proteolytic stability compared to control peptide FA after 24 h: α-chymotrypsin, 10 mM phosphate buffer pH 7.4, 30 °C, FL-RP-HPLC; for Gain in proteolytic stability upon fluorination compared to the non-fluorinated (Leu or Ile) analogue: after 24 h; for Proteolytic stability compared to control peptide FA after 120 min / Proteolytic stability compared to control peptide FA after 24 h: three independent measurements
T1 construct: purchased Sigma Aldrich; host or cells: bovine pancreas
Experimental: (§1) The FA peptide was used as a reference. […] All experiments were performed in triplicate.
(§2) The used linear gradients are
(§3) chromatograms where an insufficient baseline separation was observed,
(§4) (proteinase K)]. The obtained data were analyzed with EZChrom Elite software
(§5) Method Time [min] Water + 0.1% (v/v) TFA [%] ACN + 0.1% (v/v) TFA [%]

[2] = target: T2, proteinase K (EC 3.4.21.64) (Parengyodontium album, UniProt P06873); assay: Protease digestion assay with proteinase K (FL-RP-HPLC); format: in vitro ADME, tritirachium album; conditions: for Gain in stability upon fluorination compared to the non-fluorinated analogue, 120 min: after 120 min
T2 construct: purchased Sigma Aldrich; host or cells: Tritirachium album
Experimental: as §1, §2, §3, §4, §5

in vitro = conditions: pig, pepsin from porcine stomach mucosa, pH 4
Experimental: (§6) The course of proteolytic digestion was characterized by an analytical HPLC-assay with fluorescence detection. For quantification of substrate degradation, integration of the corresponding HPLC peak was conducted. Cleavage products were identified by ESI–ToF mass spectrometry (see Supporting Information File 1, Tables S4–S7).
(§7) All peptides employed in the degradation studies were used as the TFA salts obtained after lyophilization. Stock solutions of α-chymotrypsin (from bovine pancreas, EC 3.4.21.1, ≥40.0 units/mg of protein, Sigma Aldrich, St. Louis, MO, USA), and pepsin (from porcine stomach mucosa, EC 3.4.23.1, ≥250 units/mg of protein, Sigma Aldrich, St. Louis, MO, USA) were prepared at concentrations of 1 mg/mL in phosphate buffer (10 mM, pH 7.4), or in acetate buffer (10 mM, pH 4.0), respectively. For proteinase K (from tritirachium album, EC 3.4.21.64, ≥30 units/mg of protein, Sigma Aldrich, St. Louis, MO, USA) and elastase (from porcine pancreas, EC 3.4.21.36, 6.2 units/mg of protein, Sigma Aldrich, St. Louis, MO, USA) stock solutions were prepared also at concentrations of 1 mg/mL in tris/HCl (50 mM) + CaCl2 (10 mM) buffer (pH 7.5), or in tris/HCl buffer (100 mM, pH 8.4), respectively. Peptides (0.002 mmol) were prepared as stocks in DMSO (100 µL) and incubated with the respective enzyme at 30 °C (for α-chymotrypsin and pepsin) or 37 °C (for proteinase K and elastase) with shaking at 300 rpm in a thermomixer over a period of 24 h. The reaction mixture consisted of DMSO (15 µL), corresponding buffer (25 µL), peptide solution (5 µL) and the corresponding enzyme solution (5 µL). […] Aliquots of 5 µL were taken at fixed time points (0, 15, 30, 60, 90, 120 min as well as 3 h and 24 h) and either quenched with ACN containing 0.1% (v/v) TFA (95 µL), in the case of α-chymotrypsin, proteinase K and elastase, or 2% aqueous ammonia (95 µL), in the case of pepsin. All samples were subjected to analytical HPLC on a LaChrom-ELITE-HPLC-System equipped with a fluorescence detector (VWR International Hitachi, Darmstadt, Germany). A monolithic reversed-phase C8 Chromolith® Performance HPLC column (100 × 4.6 mm, Merck KGaA, Darmstadt, Germany) was used to resolve and quantify the products of digestion. The used system and gradients are described in detail in Supporting Information File 1. Detection based on the Abz label was carried out using a fluorescence detector with λex = 320 nm and λem = 420 nm. In all cases, the peaks corresponding to the starting materials (full-length peptides) or the N-terminal fragments (products) were integrated and used to determine the velocity of the reaction (see Supporting Information File 1). […] Each fragment cleaved from the full-length peptide was identified by ESI–ToF mass analysis on an Agilent 6220 ESI–ToF–MS spectrometer (Agilent Technologies, Santa Clara, CA, USA, see Supporting Information File 1). All experiments were performed in triplicate.
(§8) 2130) with solvent degasser, an autosampler (L-2200) with a 100 µL sample loop, a diode array flow detector (L-2455), a fluorescence detector (L-2485) and a high pressure gradient mixer. As eluents water and ACN, both containing 0.1% (v/v) TFA were used, and a flow rate of 3 mL/min was applied. The used linear gradients are […]
(§9) For the non-fluorinated peptides method A was used to follow the digestion process, and for the fluorinated peptides method B was applied. For […]
(§10) The obtained data were analyzed with EZChrom Elite software
(§11) (version 3.3.2, Agilent Technologies, Santa Clara, CA, USA).

pepsin (EC 3.4.23.1) [3] = target: pepsin (EC 3.4.23.1) (Sus scrofa, UniProt P00791); assay: in vitro; conditions: for Percentage of substrate remaining after incubation for 24 h: pepsin (porcine stomach mucosa), 10 mM acetate buffer pH 4.0 with DMSO, 30 °C, FL-RP-HPLC peak integration (Abz, λex 320/λem 420 nm), average of three independent measurements
Experimental: as §6, §7, §8, §9, §10, §11

elastase (EC 3.4.21.36) [4] = target: elastase (EC 3.4.21.36) (Sus scrofa, UniProt P00772); conditions: elastase (porcine pancreas), 100 mM Tris/HCl buffer pH 8.4 with DMSO, 37 °C, mean of three independent measurements; for Degradation state after incubation for 120 min: FL-RP-HPLC
Experimental: as §6, §7, §8, §9, §10, §11

[5] = system: proteinase K (EC 3.4.21.64); assay: proteinase K in 50 mM Tris/HCl buffer, containing 10 mM CaCl2 pH 7.5; conditions: tritirachium album, 37 °C, up to 24 h
[6] = system: α-chymotrypsin (EC 3.4.21.1); assay: α-chymotrypsin in 10 mM phosphate buffer, pH 7.4; conditions: bovine pancreas, 30 °C, up to 24 h
pepsin (EC 3.4.23.1) [7] = assay: pepsin in 10 mM acetate buffer, pH 4.0; conditions: porcine stomach mucosa, 30 °C, up to 24 h
elastase (EC 3.4.21.36) [8] = assay: elastase in 100 mM Tris/HCl buffer, pH 8.4; conditions: porcine pancreas, 37 °C, up to 24 h
[9] = system: elastase (from porcine pancreas, EC 3.4.21.36); assay: elastase in 100 mM Tris/HCl buffer, pH 8.4; conditions: 37 °C, up to 24 h
dipeptidyl peptidase = conditions: wild-type peptide; cited from earlier work
From the text: Several laboratories have focused on introducing highly fluorinated analogues of hydrophobic amino acids and have studied the effects on stability of the resulting proteins towards thermal and chemical denaturation. These studies prompted further investigation into the extent to which fluorinated amino acids stabilize peptides and proteins against proteolytic degradation in particular. Meng and Kumar reported that the incorporation of 5,5,5,5’,5’,5’-hexafluoroleucine (HfLeu) into the antimicrobial peptides magainin 2 amide and buforin enhanced their resistance towards proteolyt ...

[10] = proteinase K, 50 mM Tris/HCl + 10 mM CaCl2 pH 7.5, 37 °C
[11] = proteinase K, 50 mM Tris/HCl + 10 mM CaCl2 pH 7.5, 37 °C, 120 min, FL-RP-HPLC
[12] = pepsin, 10 mM acetate buffer pH 4.0, 30 °C, 120 min, FL-RP-HPLC

T2 sequence (P06873 106-384): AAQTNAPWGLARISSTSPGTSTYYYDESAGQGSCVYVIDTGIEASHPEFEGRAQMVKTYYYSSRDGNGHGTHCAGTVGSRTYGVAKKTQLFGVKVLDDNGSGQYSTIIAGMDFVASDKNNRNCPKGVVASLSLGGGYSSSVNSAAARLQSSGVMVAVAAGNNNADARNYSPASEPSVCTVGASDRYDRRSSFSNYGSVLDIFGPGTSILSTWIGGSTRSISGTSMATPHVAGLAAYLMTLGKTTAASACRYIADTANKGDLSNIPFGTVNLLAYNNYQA
Chain of elastase (EC 3.4.21.36) (Sus scrofa, UniProt P00772) (P00772 27-266): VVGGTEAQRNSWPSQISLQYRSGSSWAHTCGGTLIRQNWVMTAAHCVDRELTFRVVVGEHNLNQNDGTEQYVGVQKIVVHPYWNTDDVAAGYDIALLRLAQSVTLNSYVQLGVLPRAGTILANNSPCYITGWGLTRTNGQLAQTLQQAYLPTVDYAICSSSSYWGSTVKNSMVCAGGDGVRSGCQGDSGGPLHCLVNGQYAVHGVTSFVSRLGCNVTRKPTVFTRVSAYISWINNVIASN
Chain of pepsin (EC 3.4.23.1) (Sus scrofa, UniProt P00791) (P00791 60-385): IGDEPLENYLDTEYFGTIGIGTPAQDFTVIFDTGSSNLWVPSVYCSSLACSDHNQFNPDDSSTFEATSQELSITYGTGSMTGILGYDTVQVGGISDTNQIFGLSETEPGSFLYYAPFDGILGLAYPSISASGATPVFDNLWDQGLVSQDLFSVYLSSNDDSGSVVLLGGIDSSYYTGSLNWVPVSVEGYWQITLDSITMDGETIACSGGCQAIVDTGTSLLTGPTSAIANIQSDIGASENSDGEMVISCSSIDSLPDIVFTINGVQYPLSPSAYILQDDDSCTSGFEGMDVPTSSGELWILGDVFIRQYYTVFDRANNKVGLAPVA

Q: With C[C@H](NC(=O)[C@H](C)NC(=O)[C@H](C)NC(=O)[C@H](Cc1ccccc1)NC(=O)[C@H](CC(C(F)(F)F)C(F)(F)F)NC(=O)[C@H](C)NC(=O)[C@H](CCCCN)NC(=O)c1ccccc1N)C(=O)N[C@@H](C)C(=O)N[C@@H](CCCCN)C(=O)O [P2-HfLeuFA] (H-[2Abz]KA[Leu(5,5,5,5',5',5'-F6)]FAAAAK-OH) as the compound, how does the “Percentage of substrate remaining after incubation for 24 h” value (from here on “Percentage of substrate remaining”) [1] read?
A: not digested at all

Q: And the “Gain in proteolytic stability upon fluorination compared to the non-fluorinated (Leu or Ile) analogue” value [1]?
A: ~100%

Q: What about the gain in stability vs non-fluorinated analogue after 24 h of the same compound?
A: 19%

Q: Which results are given for C[C@H](NC(=O)[C@H](C)NC(=O)[C@H](C)NC(=O)[C@H](Cc1ccccc1)NC(=O)[C@@H](NC(=O)[C@H](C)NC(=O)[C@H](CCCCN)NC(=O)c1ccccc1N)[C@@H](C)CC(F)(F)F)C(=O)N[C@@H](C)C(=O)N[C@@H](CCCCN)C(=O)O [P2-TfIleFA] (H-[2Abz]KA[X1]FAAAAK-OH)?
A: Percentage of substrate remaining after incubation for 24 h ([2]; proteinase K (tritirachium album), 50 mM Tris/HCl buffer containing 10 mM CaCl2 pH 7.5 with DMSO, 37 °C, 24 h, FL-RP-HPLC peak integration (Abz fluorescence), mean of three independent measurements): still left; also recorded: remarkably stable; Gain in stability upon fluorination compared to the non-fluorinated analogue, 120 min [2, 10]: 60%; Percentage of substrate remaining after incubation for 24 h [1]: not digested at all; Gain in proteolytic stability upon fluorination compared to the non-fluorinated (Leu or Ile) analogue [1]: 50%; gain in stability vs non-fluorinated analogue after 24 h: 35%; remaining at 24 h, 2 mM (in vitro): 100%; Gain in proteolytic stability upon fluorination compared to the non-fluorinated analogue, 24 h (pepsin (EC 3.4.23.1) [3]; pepsin, 10 mM acetate buffer pH 4.0, 30 °C, after 24 h): 100%

Q: For C[C@H](NC(=O)[C@H](C)NC(=O)[C@H](CC(C(F)(F)F)C(F)(F)F)NC(=O)[C@H](C)NC(=O)[C@H](Cc1ccccc1)NC(=O)[C@H](C)NC(=O)[C@H](C)NC(=O)[C@H](CCCCN)NC(=O)c1ccccc1N)C(=O)N[C@@H](CCCCN)C(=O)O [P2’-HfLeuFA] (H-[2Abz]KAAFA[Leu(5,5,5,5',5',5'-F6)]AAK-OH), which “Degradation state after incubation for 120 min” value (shortened to “Degradation state”) [2, 11] is on record?
A: almost completely degraded

Q: And the “Percentage of substrate remaining” value [1]?
A: up to 44%

Q: And the “Proteolytic stability compared to control peptide FA after 120 min” value [1]?
A: more stable against digestion

Q: What about the remaining at 24 h, 2 mM (in vitro) of the same compound?
A: ~76%

Q: And the “Peptide digested (hydrolysis) after 120 min” value (pepsin (EC 3.4.23.1) [3]; pepsin, 10 mM acetate buffer pH 4.0, 30 °C, 120 min, FL-RP-HPLC, enzyme concentration optimized to about 40% hydrolysis of FA)?
A: up to 5%

Q: For CC[C@H](C)[C@H](NC(=O)[C@H](C)NC(=O)[C@H](Cc1ccccc1)NC(=O)[C@H](C)NC(=O)[C@H](C)NC(=O)[C@H](CCCCN)NC(=O)c1ccccc1N)C(=O)N[C@@H](C)C(=O)N[C@@H](C)C(=O)N[C@@H](CCCCN)C(=O)O [P2’-IleFA] (H-[2Abz]KAAFAIAAK-OH), which “Degradation state” value (elastase (EC 3.4.21.36) [4]) is on record?
A: somewhat digested

Q: And the “Percentage of substrate remaining” value (elastase (EC 3.4.21.36) [4]; 24 h, FL-RP-HPLC peak integration (Abz fluorescence))?
A: almost complete proteolysis

Q: And the “Proteolytic stability compared to control peptide FA after 120 min” value [2, 11]?
A: as stable as FA

Q: And the “Proteolytic stability compared to control peptide FA after 120 min” value [1]?
A: more stable against digestion

Q: What about the “Proteolytic stability compared to control peptide FA after 24 h” value [1] of the same compound?
A: accelerated proteolysis compared to FA

Q: What about the “Percentage of substrate remaining” value (pepsin (EC 3.4.23.1) [3]) of the same compound?
A: completely digested

Q: What about the “Proteolytic stability compared to control peptide FA after 120 min” value (pepsin (EC 3.4.23.1) [3]; [12]) of the same compound?
A: degraded faster than the control FA

Q: With CC(C)C[C@H](NC(=O)[C@H](C)NC(=O)[C@H](Cc1ccccc1)NC(=O)[C@H](C)NC(=O)[C@H](C)NC(=O)[C@H](CCCCN)NC(=O)c1ccccc1N)C(=O)N[C@@H](C)C(=O)N[C@@H](C)C(=O)N[C@@H](CCCCN)C(=O)O [P2’-LeuFA] (H-[2Abz]KAAFALAAK-OH) as the compound, how does the “Degradation state” value (elastase (EC 3.4.21.36) [4]) read?
A: somewhat digested

Q: What about the “Proteolytic stability compared to control peptide FA after 120 min” value [1] of the same compound?
A: more stable against digestion

Q: What about the “Proteolytic stability compared to control peptide FA after 24 h” value [1] of the same compound?
A: accelerated proteolysis compared to FA

Q: What about the “Proteolytic stability compared to control peptide FA after 120 min” value (pepsin (EC 3.4.23.1) [3]; [12]) of the same compound?
A: degraded faster than the control FA

Q: Which results are given for Abz-KAAFALeuAAK?
A: cleaved bond [5]: A-F and Leu-A; cleaved bond [6]: F-A, major; cleaved bond (pepsin (EC 3.4.23.1) [7]): F-A; cleaved bond (elastase (EC 3.4.21.36) [8]): A-A and A-Leu and A-K; not cleaved [9]: no fragments with Phe in P1 observed

Q: Which results are given for Abz-KAAFATfIleAAK [P2’-TfIleFA]?
A: Degradation state after incubation for 120 min (elastase (EC 3.4.21.36) [4]): somewhat digested; Gain in stability upon fluorination compared to the non-fluorinated analogue, 120 min [2, 10]: around 12%; Percentage of substrate remaining after incubation for 24 h (pepsin (EC 3.4.23.1) [3]): completely digested; Proteolytic stability compared to control peptide FA after 120 min (pepsin (EC 3.4.23.1) [3]; [12]): degraded faster than the control FA

Q: For glucagon-like-peptide-1 [GLP-1], which “Time of rapid digestion by the serine protease dipeptidyl peptidase” value (dipeptidyl peptidase) is on record?
A: ≈ 2 min
